Assay results as given in patent US20140030712A1, “GENOMIC APPROACH TO THE IDENTIFICATION OF BIOMARKERS FOR ANTIBIOTIC RESISTANCE AND SUSCEPTIBILITY IN CLINICAL ISOLATES OF BACTERIAL PATHOGENS” (priority 2011, published 2014).
≈ marks a conversion by molar mass, not a printed value. Where two headings read alike, the source gives them in different places.

How the values were obtained:
[1] = test system: E. coli clinical isolates; assay: microbe, parasite or virus in culture; format: cell-based; conditions: Escherichia coli
Method: Clinical isolate collection and antibiotic resistance determination. […] Hospital-derived qualitative antibiotic susceptibility status denoted each isolate as susceptible (S), intermediate resistant (I), or resistance (R) to the drugs listed in Table 1. Quantitative MICs for the fluoroquinolones ciprofloxacin (CIP), gatifloxacin (GAT), levofloxacin (LVX), and norfloxacin (NOR) were determined in our laboratory as described (LBB).

[2] = test system: E. coli BW25113 K-12 strain; conditions: deletion of any of three cryptic prophages (rac, e14, CP4-6); cited from earlier work
[3] = pool H01, n=2 isolates, MDR ≧5, read-out: Fluoroquinolone MIC
[4] = pool H02, n=5 isolates, MDR ≧3, read-out: Fluoroquinolone MIC
[5] = pool H03, n=5 isolates, MDR ≧3, read-out: Fluoroquinolone MIC
[6] = pool M01, n=10 isolates, MDR ≧3, read-out: Fluoroquinolone MIC
[7] = pool M02, n=10 isolates, MDR ≧5, read-out: Fluoroquinolone MIC
[8] = pool M03, n=13 isolates, no MDR, read-out: Fluoroquinolone MIC
[9] = pool M04, n=23 isolates, no MDR, read-out: Fluoroquinolone MIC
[10] = pool M05, n=16 isolates, MDR ≧5, read-out: Fluoroquinolone MIC
[11] = pool M06, n=13 isolates, MDR ≧3, read-out: Fluoroquinolone MIC
[12] = pool M07, n=33 isolates, MDR ≧3, read-out: Fluoroquinolone MIC
[13] = pool M08, n=3 isolates, No MDR, read-out: Fluoroquinolone MIC
[14] = pool M09, n=3 isolates, MDR ≧3, read-out: Fluoroquinolone MIC
[15] = pool M10, n=5 isolates, MDR ≧5, read-out: Fluoroquinolone MIC
[16] = pool M11, n=5 isolates, MDR ≧3, read-out: Fluoroquinolone MIC
[17] = pool S01, n=9 isolates, no MDR, read-out: Fluoroquinolone MIC
[18] = pool S02, n=9 isolates, no MDR, read-out: Fluoroquinolone MIC

| Structure (SMILES) | MIC [1, 3] [µg/mL] | MIC [1, 4] [µg/mL] | MIC [1, 5] [µg/mL] | MIC [1, 6] [µg/mL] | MIC [1, 7] [µg/mL] | MIC [1, 8] [µg/mL] | MIC [1, 9] [µg/mL] | MIC [1, 10] [µg/mL] | MIC [1, 11] [µg/mL] | MIC [1, 12] [µg/mL] | MIC [1, 13] [µg/mL] | MIC [1, 14] [µg/mL] | MIC [1, 15] [µg/mL] | MIC [1, 16] [µg/mL] | MIC [1, 17] [µg/mL] | MIC [1, 18] [µg/mL] | MIC ([1]; pools denoted "H", read-out: norfloxacin MICs) [µg/mL] | nalidixic acid MICs [2] |
| --- | --- | --- | --- | --- | --- | --- | --- | --- | --- | --- | --- | --- | --- | --- | --- | --- | --- | --- |
| COc1c(N2CCNC(C)C2)c(F)cc2c(=O)c(C(=O)O)cn(C3CC3)c12 (centres unmarked) [GAT, gatifloxacin] | 10 to 30 (≈ 26.6 to 79.9 µM) | 10 to 30 (≈ 26.6 to 79.9 µM) | 50 to 200 (≈ 133 to 533 µM) | 10 to 30 (≈ 26.6 to 79.9 µM) | 10 to 30 (≈ 26.6 to 79.9 µM) | 8 to 30 (≈ 21.3 to 79.9 µM) | 30 to 100 (≈ 79.9 to 266 µM) | 10 to 20 (≈ 26.6 to 53.3 µM) | 10 to 20 (≈ 26.6 to 53.3 µM) | 10 (≈ 26.6 µM) | 100 to 300 (≈ 266 to 799 µM) | 20 (≈ 53.3 µM) | 20 to 100 (≈ 53.3 to 266 µM) | 10 to 50 (≈ 26.6 to 133 µM) | 0.01 to 0.02 (≈ 0.0266 to 0.0533 µM) | 0.01 to 0.09 (≈ 0.0266 to 0.24 µM) |  |  |
| C[C@H]1COc2c(N3CCN(C)CC3)c(F)cc3c(=O)c(C(=O)O)cn1c23 [LVX, levofloxacin] | 10 to 200 (≈ 27.7 to 553 µM) | 40 to 50 (≈ 111 to 138 µM) | 100 (≈ 277 µM) | 20 to 50 (≈ 55.3 to 138 µM) | 20 to 50 (≈ 55.3 to 138 µM) | 8 to 30 (≈ 22.1 to 83 µM) | 50 to 100 (≈ 138 to 277 µM) | 30 to 50 (≈ 83 to 138 µM) | 30 to 100 (≈ 83 to 277 µM) | 10 to 20 (≈ 27.7 to 55.3 µM) | 50 to 200 (≈ 138 to 553 µM) | 10 to 20 (≈ 27.7 to 55.3 µM) | 30 to 100 (≈ 83 to 277 µM) | 20 to 50 (≈ 55.3 to 138 µM) | 0.02 to 0.07 (≈ 0.0553 to 0.194 µM) | 0.03 to 0.17 (≈ 0.083 to 0.47 µM) |  |  |
| CCn1cc(C(=O)O)c(=O)c2cc(F)c(N3CCNCC3)cc21 [NOR, norfloxacin] | 1000 (≈ 3130 µM) | 400 to 1000 (≈ 1250 to 3130 µM) | 400 to 1000 (≈ 1250 to 3130 µM) | 200 to 700 (≈ 626 to 2190 µM) | 200 to 700 (≈ 626 to 2190 µM) | 50 to 200 (≈ 157 to 626 µM) | 200 to 700 (≈ 626 to 2190 µM) | 50 to 300 (≈ 157 to 939 µM) | 200 to 400 (≈ 626 to 1250 µM) | 50 to 200 (≈ 157 to 626 µM) | 100 to 200 (≈ 313 to 626 µM) | 100 to 200 (≈ 313 to 626 µM) | 50 to 500 (≈ 157 to 1570 µM) | 50 to 200 (≈ 157 to 626 µM) | 0.03 to 0.09 (≈ 0.0939 to 0.282 µM) | 0.04 to 0.34 (≈ 0.125 to 1.06 µM) | > 1000 |  |
| CCn1cc(C(=O)O)c(=O)c2ccc(C)nc21 [nalidixic acid] |  |  |  |  |  |  |  |  |  |  |  |  |  |  |  |  |  | lowered |
